The record followed here is PubChem BioAssay (NCI).

“And” between values parts separate entries of the source, which are not always exact repeats. Equal values may be shown once.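 Five compound concentrations were applied to cells in 96-well plates for 48 hours; endpoints were derived by simple linear interpolation of the resulting dose-response curve. Abbreviation: GI50, concentration required for 50% inhibition of growth. Definition used: TGI = concentration required for complete inhibition of growth.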 Where a SMILES comes first, the peptide text is derived from it. The star is where a group is joined. Cbz = O=C(OCc1ccccc1)* Some results are limits rather than exact numbers.

What all share (test): NCI-60 cell line screen, 48 h
Experiment [1] concerns HS 578T breast.
Experiment [2] deals with HT29 colon.
Experiment [3] deals with M14 melanoma.
The subject of experiment [4] is MCF7 breast.
Experiment [5] has as its system MDA-MB-435.
Experiment [6] relates to NCI-H522 lung.
Experiment [7] has as its system NCI/ADR-RES ovarian.
The test system of experiment [8] is OVCAR-8 ovarian.
The subject of experiment [9] is UACC-257 melanoma.
The test system of experiment [10] is TK-10 renal.

In the case of `O=C1OCC2OC(=O)c3cc(O)c(O)c(O)c3-c3c(O)c(O)c(O)c4c3C(=O)OC(C2OC(=O)c2cc(O)c(O)c(O)c2-c2c1cc(O)c(O)c2O)C1OC(=O)C2C4=C(O)C(=O)C23Oc2cc(O)c4c(c2[C@H]13)O[C@H](c1ccc(O)c(O)c1)[C@@H](O)C4` (some centres not stated), the TGI is more than 100 µM in experiment [1]; 42.7 µM in experiment [2]; 29.6 µM in [3]; 46.3 µM in experiment [4]; 45 µM in experiment [5]; 50.4 µM in experiment [6]. The TGI in experiment [7] is 73.3 µM; in experiment [8], 58.5 µM; in experiment [9], more than 100 µM.

On to `CS(=O)(=O)N1CC(CCl)c2ccc(O)cc21` (configuration not stated), for which the TGI is 90.9 µM in [1]; 14.2 µM in [2]; more than 100 µM in [4]; 3.86 µM in experiment [5]; 5.8 µM in experiment [6]; 17.4 µM in experiment [7]. Further, the TGI came to 7.33 µM in experiment [8], 6.98 µM in experiment [10] and 5.95 µM in experiment [9].

Turning to `CCC1CC(O)c2c(O)c3c(c(O)c2C1O)C(=O)c1cccc(O)c1C3=O` (configuration not stated) (tested in a mixture with another compound), the TGI in experiment [1] is 0.331 µM; in experiment [2], 0.181 µM and 0.202 µM; in experiment [3] it was 0.0434 µM and 0.0173 µM; in experiment [4], 6.04 µM; in [5], 0.0713 µM and 0.0207 µM; in [6], 0.0658 µM. Also, the TGI in experiment [7] is 0.295 µM; in experiment [8], 0.181 µM and 1.19 µM; in experiment [9], 0.0941 µM and 0.0404 µM. For the same compound, the GI50 in experiment [7] and in [9] was 0.0101 µM throughout.

Take `O=C1CCSCCC(=O)Nc2ccccc2N1`: the TGI in experiment [1], in [2], in experiment [3], in experiment [5], in experiment [6] and in experiment [7] was more than 100 µM in each case. In addition, the TGI in [8], in experiment [10] and in [9] was more than 100 µM in each case.

For `C=CC1(CC[C@]2(c3ccc(OC)c(OC)c3)C=[N+]([O-])O[C@H](O[C@@H]3CCCC[C@H]3C(C)(C)c3ccccc3)C2)OCC(C)(C)CO1`, the TGI is 28.2 µM in experiment [2]; more than 58.1 µM in experiment [3]; more than 42.4 µM in experiment [4]; more than 51.1 µM in experiment [5]; 17.1 µM in experiment [6]; 31 µM in [7]. In addition, the values for the TGI in experiment [8], in experiment [10] and in experiment [9] were 40.6 µM, more than 67.8 µM and more than 54.2 µM, respectively.

Regarding `COc1ccc(/C(Cl)=C(\C#N)c2ccc(OC)c(OC)c2)cc1OC`, the TGI in experiment [2], in experiment [3], in experiment [4], in [5], in experiment [6] and in [10] was more than 100 µM in each case. The compound also came in with a TGI in [9] of more than 100 µM.

Consider `CN1CCCOC(c2ccc(Cl)cc2)O1` (configuration not stated), for which the TGI in experiment [2], in experiment [3], in experiment [4], in [5], in [6] and in experiment [7] was more than 100 µM throughout. For the same compound, the TGI in [8], in experiment [10] and in experiment [9] was more than 100 µM each time.

Take `CC(=O)OCC1OC(n2c(C)c(N=Nc3ccc(Cl)cc3)c(C)c(C#N)c2=S)C(OC(C)=O)C(OC(C)=O)C1OC(C)=O` (configuration not stated): the TGI is 68 µM in experiment [1]; more than 100 µM in [2]; more than 100 µM in [3]; more than 100 µM in experiment [4]; more than 100 µM in experiment [5]; more than 100 µM in [7]. Moreover, the TGI in [10] and in experiment [9] was more than 100 µM throughout.

On to `COc1ccc(C2(CC(C)C)CCN(S(=O)(=O)c3ccc(C)cc3)C2)cc1OC` (configuration not stated), for which the TGI was more than 100 µM in [2]; more than 100 µM in experiment [3]; more than 100 µM in experiment [4]; more than 100 µM in experiment [5]; more than 100 µM in experiment [6]; 70.5 µM in experiment [7]. In addition, the TGI in experiment [10] and in experiment [9] was more than 100 µM each time.

On to `COCCn1cnc2c(Cl)nc(Nc3ccccc3)nc21`, for which the TGI was 61.6 µM in experiment [1]; more than 100 µM in [2]; 60.8 µM in [3]; more than 100 µM in experiment [4]; 40.7 µM in experiment [5]; more than 100 µM in experiment [7]. In addition, the TGI is 54.9 µM in experiment [8], more than 100 µM in experiment [10] and more than 100 µM in [9].

Take `COC(=O)[C@@H](NC(=O)N(Cc1ccccc1)C[C@H](CC(C)C)NC(=O)[C@@H](NC(=O)OC(C)(C)C)C(C)C)C(C)C`: the TGI in [1], in experiment [2], in [3], in experiment [5], in experiment [6] and in experiment [7] was more than 100 µM each time. Besides, the TGI in experiment [8], in experiment [10] and in experiment [9] was more than 100 µM in each case.

Consider `O=c1cc(NNc2cccc(Cl)c2)[nH]c(=O)[nH]1`, for which the TGI in [1] is more than 100 µM; in [2], more than 100 µM; in experiment [3], 37.7 µM; in experiment [4] it was 17.3 µM; in [6], 34.4 µM; in [7] it was more than 100 µM. Besides, the TGI in experiment [10] is 36.2 µM; in experiment [9], more than 100 µM.

Regarding `CCOC(=O)CCC(NC(=O)OCc1ccccc1)C(=O)NC(CCC(=O)OCC)C(=O)OCC` (configuration not stated) (Cbz-Glu(OEt)-Glu(OEt)-OEt; configuration not given here), the TGI in experiment [1], in experiment [2], in experiment [3], in experiment [4], in experiment [5] and in experiment [6] was more than 100 µM each time. For the same compound, the TGI in [7], in experiment [8] and in [9] was more than 100 µM throughout.

Turning to `C=C1CC[C@H]2C(=O)OC(c3ccoc3)C[C@]2(C)C/C=C\C=C/1C(=O)OC` (some centres not stated), the TGI in experiment [1], in experiment [2], in experiment [3], in experiment [4], in [7] and in [8] was more than 25 µM each time. The TGI in experiment [10] and in experiment [9] was more than 25 µM each time.
